Reference: publication PMC9292375, “Structural basis of an epitope tagging system derived from Haloarcula marismortui bacteriorhodopsin I D94N and its monoclonal antibody GD‐26” (The Febs Journal, 2021)
Several values for one entry are separate records, joined by “and”; a condition that tells them apart may be missing. Identical values can stand only once. Entries after “also recorded” stand apart in the source; their conditions may differ. Where a SMILES comes first, the peptide text is derived from it.

Legend:
[1] = Protease resistance of the TD tag during expression and purification; details: without protease inhibitors; tag remains attached and detectable after expression and purification from bacterial and mammalian cell systems
[2] = biological target: G196; set-up: method as in PMID 28266535; details: anti‐tag antibody G196; read-out: Affinity (K D); cited from earlier work
[3] = biological target: M2; details: read-out: Affinity (K D); anti‐tag antibody M2; cited from earlier work
[4] = biological target: 9E10; details: anti‐tag antibody 9E10; read-out: Affinity (K D); cited from earlier work
[5] = biological target: GD‐26 Fab; test: ITC titration of peptides or TD‐tagged eGFP into GD‐26 Fab; assay type: binding, mouse; details: 25 °C, Tris buffer pH 7.5, engineered synthetic peptides, single experiment (n = 1)
Experimental: The titration experiments were performed with a MicroCal PEAQ‐ITC Automated (Malvern Panalytical, Malvern, UK) at 25 °C. The ITC sample cell contained 200 μL of GD‐26 IgG or GD‐26 Fab in the Tris buffer (50 mM Tris, 150 mM NaCl, pH 7.5). In the syringe, 40 μL of synthetic peptides (peptide III–V) or TD‐tagged eGFP in the same Tris buffer was injected into the sample cell using 20 injections (0.4 μL for the first injection). Prior to data analysis, heats of dilution generated by injecting the peptide solution into the buffer in the sample cell were subtracted from the experimental data. The experimental raw data were analysed using the MicroCal PEAQ‐ITC Analysis software package provided with the instrument. The first data point was removed for fitting the data to a one‐set‐of‐sites model. After entering sample concentrations, the inbuilt function for fitting is operated by clicking iteration button until a good fit to the experimental data points of the isotherms is achieved and Chi‐squared is no longer decreasing. The final fitting parameters including K D, changes in enthalpy (ΔH), entropy (ΔS) and Gibb's free energy (ΔG) and binding stoichiometry were generated by the same software.

[6] = biological target: Nanobody ALFA; set-up: method as in PMID 31562305; details: read-out: Affinity (K D); cited from earlier work
[7] = biological target: 4B2; set-up: method as in PMID 24480187; details: anti‐tag antibody 4B2; read-out: Affinity (K D); cited from earlier work
[8] = biological target: T1, TD peptide (GTGATPADD), peptide V from the C terminus of HmBRI D94N (Haloarcula marismortui HmBRI C terminus …); test: ITC; synthetic peptide in the syringe titrated into GD-26 Fab or GD-26 IgG (10 μM) in the cell; 25 °C; 50 mM Tris, 150 mM NaCl, pH 7.5; one-set-of-sites model; details: both partners purified
T1 construct: nine residues at the C terminus of Haloarcula marismortui bacteriorhodopsin I (HmBRI); residue numbers 1-9 count on: the TD peptide; also called TD tag; wild-type TD peptide; source: synthetic peptide
T1 chain: GTGATPADD

[9] = Storage stability of GD‐26 IgG; assay type: physicochemical; details: stored at 4 °C in Tris buffer

For `C[C@H](NC(=O)CNC(=O)[C@@H](NC(=O)CN)[C@@H](C)O)C(=O)N[C@H](C(=O)N1CCC[C@H]1C(=O)N[C@@H](C)C(=O)N[C@@H](CC(=O)O)C(=O)N[C@@H](CC(=O)O)C(=O)O)[C@@H](C)O` [TD] (H-GTGATPADD-OH), the “cellular protease resistance and proteolytic stability” value [1] was “good cellular protease resistance and proteolytic stability”.

For DLVPR, the Kd [2] is given as 1.25 nM.

In the case of DYKDDDDK [FLAG], the Kd [3] is given as 3 to 31 nM.

In the case of EQKLISEEDL [c‐Myc], the Kd [4] is given as 2.2 to 560 nM.

With “GTGATPA [C2, engineered TD peptide, Asp9 and Asp8 depleted]” the “K D” value [5] was “complete loss of binding; also recorded: No binding”.

For SRLEEELRRRLTE [ALFA], the Kd [6] is given as 0.026 nM.

For “TPADD [N4, engineered TD peptide, Gly1 to Ala4 deleted]”, the “K D” value [5] was “completely diminished its capability to bind; also recorded: No binding”.

In the case of YPYDVPDYA [HA], the Kd [7] is given as 1.6 nM.

B1: GD-26 IgG (recombinant monoclonal antibody GD-26, mouse IgG2a) (antibody, V domains shown)
VH: QVQLRQSGPELVKPGASVKMSCRASGYTFTNYNIHWVRQRPGQGLEWIGWIYPVDGTTKYNEKFKDKTTLTSDKSSSTAYMSLSGLTSEDSAIYFCARGLDNWGQGTSVTVSS
VL: DVVLTQTPLSLSVTIGQPASISCRSSQRLLYSNGKTYLNWFQQRPGQAPKYLMFQVSKLGPGIPARFSGSGSETDFTLKISRVEAEDLGVYYCFQGTFFPHTFGGGTKLEMK
notes: PDB 7DOH); Mouse IgG2a isotype; the same light-chain plasmid as for the Fab; source: Expi293F, transient co-transfection, secreted; purified (HiTrap Protein G, Superdex 200 gel filtration); copies: 2 + 2
For B1, the Kd [8] was 22.6 nM and 18.8 nM, the dH [8] was -12.2 kcal/mol and the “stoichiometry N” value [8] was 2.28 sites and 2.27 sites.

B2: GD‐26 IgG: recombinant monoclonal antibody, mouse IgG2a isotype, raised against HmBRI D94N (antibody, V domains shown)
VH: B1 VH
VL: B1 VL
In the case of B2, the “long‐term stability on storage” value [9] is reported as “over a year”.
